Results from patent publication US20250223552A1, “METHOD FOR PREPARING T CELLS FOR ADOPTIVE T CELL THERAPY” (ST. JUDE CHILDREN'S RESEARCH HOSPITAL, INC., priority 2022, published 2025).

Assays:
B16-Ova tumors = experiment: B16-Ova tumor growth after adoptive transfer of inhibitor-pretreated OT-I cells; format: in vivo; details: OT-I cells transiently treated with inhibitor during activation, transferred into tumor-bearing mice; FIG. 2
Experimental: Naïve OT-I CD8^+ T cells were activated with anti-CD3/CD28 in the presence or absence of Arid1a inhibitor for 48 hours followed by expansion for another 4 days. Data are representative of two independent experiments. Data are as shown mean±s.e.m. **p<0.01, ***p<0.001; two-way ANOVA.
In Vivo Tumor Transplant Experiment. For B16-Ova and MC38-Ova tumors, 0.5×10^6 tumor cells were injected subcutaneously into naïve mice (7-10 weeks of age). OT-I cells (2×10^6) were transferred i.v. 7 days after tumor injection. Tumors were measured every two days.
Effective adoptive T cell therapy for cancer is critically dependent upon the use of T cells with long-term memory potential (Lugli et al. (2020) Trends Immunol. 41:17-28; Gattinoni et al. (2012) Nat. Rev. Cancer 12:671-684; Klebanoff et al. (2005) Proc. Natl. Acad. Sci. USA 102:9571-9576; Hurton et al. (2016) Proc. Natl. Acad. Sci. USA 113: E7788-E7797). Therefore, it was determined whether manipulation of CBAF can improve anti-tumor therapy. Accordingly, OT-I cells were transduced with sgRNA for Smarcd2 or control sgRNA, and the transduced cells were transferred into animals that were subsequently infected with Lm-Ova. Animals were then inoculated with B16F10 murine melanoma cells expressing Ova (B16-Ova) at memory phase (day >30 post-infection). […]

[1] = system: B7-H3-expressing GL261 tumor cells; experiment: Repeat stimulation assay of B7-H3 CAR-T cells with GL261 tumor cells; format: cell-based, murine; details: CAR-T:tumor 3:1, counted every 3 days, FIG. 4
Experimental: T cells were transduced with B7-H3 CAR or a control CAR containing only the single-chain variable fragment (scFv) and transmembrane domain (B7-H3 STOP CAR) and co-cultured with GL261 tumor cells at the ratio of 3:1. Cells numbers were assessed every 3 days. Data are compiled from at least two independent experiments. Data are shown as mean±s.e.m. ***p<0.001; two-way ANOVA.
Repeat Stimulation Assay. For repeat stimulation assays, 3×10^5 tumor cells (GL261, F420) were plated in a 24-well plate and allowed to adhere for 4-6 hours at 37° C., CAR-T cells (1×10^6) were then added to the wells containing tumor cells without any exogenous cytokines (tumor: CAR-T cell ratio=1:3). After 3 days of co-culture, CAR-T cells were lifted by gentle pipetting to avoid disrupting adherent tumor cells, and the number of T cells was determined using a hemocytometer. Stimulations and cell counts were repeated every 3 days with the same tumor cells.
Currently the most widely used adoptive T cell therapy employs the use of CARs. However, the use of CAR-T cells for the treatment of solid tumors remains challenging (Lim & June whether CAR-T cell (2017) Cell 168:724-740). […] The ability of B7-H3 CAR-T cells to control the growth of F420 cells was then assessed in vivo.

human CD8^+ T cells = experiment: Persistence of inhibitor-pretreated human CD8+ T cells in NSG mice at day 30 after adoptive transfer; format: in vivo; details: transient treatment during activation; recovered after 30 days; FIG. 9
Experimental: Naïve human CD8^+ T cells were activated with anti-CD3/CD28 in the presence or absence of Arid1a inhibitor for 48 hours followed by expansion in IL-15 containing medium for another 4 days prior to adoptive transfer. Data are representative of two independent experiments. Data are shown as mean±s.e.m. *p<0.05; two-tailed unpaired Student's t-test.
For human CD8^+ T cell experiments, naïve CD8^+ T cells were activated by human CD3/CD28 T cell activator (StemCell) with or without an Arid1a inhibitor (BRD-K98645985; 1 μM; AOBIOUS or MedChemExpress) for two days and cultured in rhIL-15 (10 ng/ml, Peprotech) containing medium. Activated CD8^+ T cells (3×10^6) were then transferred to NOD scid gamma mice sold under the tradename NSG®. After 30 days, splenic cells were analyzed by flow cytometry.
The effect of the Arid1a inhibitor on the differentiation of activated, human CD8^+ T cells was also analyzed. Human naïve CD8^+ T cells from healthy donors were enriched and stimulated with anti-CD3/CD28, following by culturing in IL-15 or IL-2, two cytokines that respectively promote in vitro TMEM-like and TEFF-like cell formation (Buck et al. (2016) Cell 166:63-76; Mitchell et al. (2010) J. Immunol. 184:6719-6730). Arid1a inhibitor was added during different periods of culture. […] After 30 days, T cells were recovered and analyzed.

Structure (SMILES): CO[C@H]1CN(C)C(=O)c2cc(NC(=O)NC(C)C)ccc2OC[C@H](C)N(Cc2ccc(-c3ccccn3)cc2)C[C@@H]1C [BRD-K98645985]
- control of B16-Ova tumor growth in vivo by transferred OT-I cells (B16-Ova tumors): improved the ability of OT-I cells to control
- expansion of CAR-T cells on repeated stimulation [1]: greater expansion
- persistence of activated human T cells in NSG mice (human CD8^+ T cells): enhanced persistence
- propensity to express markers of TCM cells in NSG mice (human CD8^+ T cells): greater propensity to express markers of TCM cells
